We go through one compound from article PMC2737065 (Journal of the American Chemical Society, 2009).

A word on the IC50: it is the concentration needed to halve the response being measured.

Molecules are shown by their SMILES.

This assay has as its target P450 19A1 (aromatase) (Homo sapiens, UniProt P11511). Description: competitive ABPP: blockade of probe […] labeling, in-gel fluorescence. Type of assay: biochemical.

P450 19A1 (aromatase), sequence (P16435 2-677): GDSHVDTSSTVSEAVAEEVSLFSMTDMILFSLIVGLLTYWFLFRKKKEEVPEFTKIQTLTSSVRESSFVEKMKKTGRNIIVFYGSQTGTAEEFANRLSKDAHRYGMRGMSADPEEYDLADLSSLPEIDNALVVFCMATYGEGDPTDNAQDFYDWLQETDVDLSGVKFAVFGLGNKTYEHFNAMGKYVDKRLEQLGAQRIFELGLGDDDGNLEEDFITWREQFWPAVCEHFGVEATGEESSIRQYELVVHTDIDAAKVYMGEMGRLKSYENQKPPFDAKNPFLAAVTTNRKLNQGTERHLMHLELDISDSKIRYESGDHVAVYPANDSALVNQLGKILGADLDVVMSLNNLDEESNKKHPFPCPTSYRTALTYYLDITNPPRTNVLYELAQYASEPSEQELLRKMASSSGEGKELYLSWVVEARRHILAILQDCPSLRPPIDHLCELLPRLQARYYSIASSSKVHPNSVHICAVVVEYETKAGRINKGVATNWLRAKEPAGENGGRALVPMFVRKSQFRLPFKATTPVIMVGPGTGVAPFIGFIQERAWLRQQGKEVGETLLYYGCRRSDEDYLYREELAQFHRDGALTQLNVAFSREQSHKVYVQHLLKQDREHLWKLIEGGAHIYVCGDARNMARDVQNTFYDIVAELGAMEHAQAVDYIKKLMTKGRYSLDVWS
P450 19A1 (aromatase), sequence (P11511 whole entry): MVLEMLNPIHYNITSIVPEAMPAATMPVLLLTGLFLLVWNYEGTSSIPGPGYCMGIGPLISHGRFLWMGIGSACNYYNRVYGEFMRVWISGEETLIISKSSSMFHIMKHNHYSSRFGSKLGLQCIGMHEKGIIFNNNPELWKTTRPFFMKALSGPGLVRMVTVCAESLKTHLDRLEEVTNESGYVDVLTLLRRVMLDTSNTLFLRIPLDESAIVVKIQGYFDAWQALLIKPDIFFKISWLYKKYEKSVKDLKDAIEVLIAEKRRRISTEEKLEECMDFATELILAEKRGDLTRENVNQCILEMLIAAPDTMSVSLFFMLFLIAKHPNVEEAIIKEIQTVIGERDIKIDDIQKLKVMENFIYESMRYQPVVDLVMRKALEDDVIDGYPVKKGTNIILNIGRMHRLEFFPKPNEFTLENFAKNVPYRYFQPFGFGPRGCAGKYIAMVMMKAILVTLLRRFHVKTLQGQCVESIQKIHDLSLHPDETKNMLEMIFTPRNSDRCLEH

In the case of `C[C@]12CCC(=O)C(O)=C1CC[C@@H]1[C@@H]2CC[C@]2(C)C(=O)CC[C@@H]12` [formestane], the IC50 stood at 430 nM. That is a sub-micromolar value.
